According to patent US12029747B2, “Use of baicalin in preparation of drug for treating tumor irresponsive to immune checkpoint inhibitors (ICIs)/undergoing hyperprogression” (BEIJING FRIENDSHIP HOSPITAL, CAPITAL MEDICAL UNIVERSITY, priority 2022, dated 2024):
“Also recorded” adds a separate entry of the source.

Legend:
[1] = Adverse reactions in treated tumor-bearing mice; format: in vivo; settings: tumor-bearing mice irresponsive to ICIs
Protocol: (§1) During administration, a body weight of mice was monitored every 3 days, and a tumor volume was measured.

[2] = system: Lewis lung carcinoma (LLC); assay: Therapeutic effect in PD-1 mAb-irresponsive (NR-FMT) LLC-bearing mice: tumor volume and weight; format: in vivo, C57BL/6J mice; settings: compared with NR-Control group, HQG intragastric daily, PD-1 mAb i.p. once every 3 days
Protocol: Pseudo-germ-free mouse modeling: Mice were treated with broad-spectrum antibiotics to construct pseudo-germ-free mouse models. 36 female C57BL/6J mice at 5 weeks (experimental animal license No.: SCXK (Beijing) 2019-0009) were purchased from Beijing Vital River Laboratory Animal Technology Co., Ltd. The mice were raised under the following conditions: cleanliness: SPF level; room temperature: 20° C. to 22° C.; humidity: 60±5%; 12 h light/12 h dark alternating cycle; and free eating and drinking. All animal protocols in this experiment were approved by the Beijing MaideiKangna Animal Ethics Committee, and animal experimental operations were conducted under the guidance of the Laboratory Animal Protection Association.
After the mice were raised adaptively for one week, the mice were intragastrically administered daily with 100 μL of ABT for consecutive 3 days. […]
Subcutaneous inoculation of LLC cells: An LLC cell suspension with a concentration of about 1×10^7 cells/mL was inoculated at a right axilla of a fecal bacteria-transplanted mouse with an inoculum size of 0.2 mL/mouse. The longest and shortest diameters of a tumor were measured by a vernier caliper, and a volume of the tumor=½ longest diameter×shortest diameter^2. […]
as §1

Foxp3^+Treg cells = assay: Detection of Foxp3+Treg cells in a tumor tissue by FCM (NR-FMT LLC-bearing mice); format: in vivo, C57BL/6J mice; settings: flow cytometry of tumor tissue

SMILES: O=C(O)[C@H]1O[C@@H](Oc2cc3oc(-c4ccccc4)cc(=O)c3c(O)c2O)[C@H](O)[C@@H](O)[C@@H]1O [HQG, baicalin]
- adverse reactions [1]: no significant adverse reactions
- tumor volume [2]: no significant difference; also recorded: not reduced
- tumor weight [2]: no significant difference; also recorded: not reduced
- number of Foxp3+Treg cells in a tumor (Foxp3^+Treg cells): not reduced
